How the values were obtained:
[1] = molecular target: Rho-associated protein kinase 1 (Homo sapiens, UniProt Q13464); test: Inhibition of human recombinant ROCK1
[2] = molecular target: Rho-associated protein kinase 2 (Homo sapiens, UniProt O75116); test: Inhibition of human recombinant ROCK2
[3] = molecular target: T1, Cytochrome P450 1A2 (Homo sapiens, UniProt P05177); test: Inhibition of CYP1A2; type: ADME
T1 sequence (P05177 whole entry): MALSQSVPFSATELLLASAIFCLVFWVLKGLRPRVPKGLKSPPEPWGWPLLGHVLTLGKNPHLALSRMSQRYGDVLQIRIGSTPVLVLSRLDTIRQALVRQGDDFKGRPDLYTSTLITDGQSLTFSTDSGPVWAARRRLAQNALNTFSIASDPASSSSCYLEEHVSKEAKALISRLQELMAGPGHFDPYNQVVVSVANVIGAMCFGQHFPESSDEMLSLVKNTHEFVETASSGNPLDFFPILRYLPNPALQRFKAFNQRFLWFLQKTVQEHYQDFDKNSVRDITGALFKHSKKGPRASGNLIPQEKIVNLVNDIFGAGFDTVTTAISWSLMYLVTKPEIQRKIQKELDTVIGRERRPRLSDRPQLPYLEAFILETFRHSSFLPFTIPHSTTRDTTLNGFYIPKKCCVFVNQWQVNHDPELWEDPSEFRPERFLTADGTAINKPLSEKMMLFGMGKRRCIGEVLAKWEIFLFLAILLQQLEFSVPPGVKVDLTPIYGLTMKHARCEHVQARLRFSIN

[4] = molecular target: T2, Cytochrome P450 2B6 (Homo sapiens, UniProt P20813); test: Inhibition of CYP2B6; type: ADME
T2 sequence (P20813 whole entry): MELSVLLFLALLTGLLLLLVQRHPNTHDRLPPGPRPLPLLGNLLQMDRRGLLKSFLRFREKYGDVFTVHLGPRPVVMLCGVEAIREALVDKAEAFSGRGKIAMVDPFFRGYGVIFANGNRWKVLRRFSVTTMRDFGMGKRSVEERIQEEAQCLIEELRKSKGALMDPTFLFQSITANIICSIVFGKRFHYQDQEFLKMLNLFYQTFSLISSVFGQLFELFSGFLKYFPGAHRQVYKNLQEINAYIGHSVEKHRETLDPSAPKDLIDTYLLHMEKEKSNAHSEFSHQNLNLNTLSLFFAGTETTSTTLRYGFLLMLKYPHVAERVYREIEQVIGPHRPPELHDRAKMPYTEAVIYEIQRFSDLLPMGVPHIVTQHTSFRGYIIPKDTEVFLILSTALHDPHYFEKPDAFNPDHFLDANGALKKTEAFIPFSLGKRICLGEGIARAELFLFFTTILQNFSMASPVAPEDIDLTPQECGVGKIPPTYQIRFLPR

[5] = molecular target: T3, Cytochrome P450 2C8 (Homo sapiens, UniProt P10632); test: Inhibition of CYP2C8; type: ADME
T3 sequence (P10632 whole entry): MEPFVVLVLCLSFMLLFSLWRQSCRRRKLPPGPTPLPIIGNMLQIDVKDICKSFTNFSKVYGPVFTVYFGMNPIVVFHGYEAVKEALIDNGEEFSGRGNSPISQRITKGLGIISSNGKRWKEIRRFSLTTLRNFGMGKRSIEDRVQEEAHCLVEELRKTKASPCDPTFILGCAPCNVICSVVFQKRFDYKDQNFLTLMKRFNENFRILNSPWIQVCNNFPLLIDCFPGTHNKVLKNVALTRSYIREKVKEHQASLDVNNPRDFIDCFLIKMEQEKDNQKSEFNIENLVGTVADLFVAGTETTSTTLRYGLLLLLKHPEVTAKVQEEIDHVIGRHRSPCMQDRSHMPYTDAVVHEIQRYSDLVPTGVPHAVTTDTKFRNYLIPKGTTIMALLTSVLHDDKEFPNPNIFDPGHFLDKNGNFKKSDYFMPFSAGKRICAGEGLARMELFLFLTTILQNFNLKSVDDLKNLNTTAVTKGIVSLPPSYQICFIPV

[6] = molecular target: Cytochrome P450 2C19 (Homo sapiens, UniProt P33261); test: Inhibition of CYP2C19; type: ADME
[7] = molecular target: Cytochrome P450 2D6 (Homo sapiens, UniProt P10635); test: Inhibition of CYP2D6; type: ADME
[8] = molecular target: Cytochrome P450 3A4 (Homo sapiens, UniProt P08684); test: Inhibition of CYP3A4; type: ADME
[9] = Metabolic stability in human liver microsomes after 1 hr; type: ADME, Microsome; conditions: read-out: Stability

Sequence of Rho-associated protein kinase 2 (O75116 whole entry): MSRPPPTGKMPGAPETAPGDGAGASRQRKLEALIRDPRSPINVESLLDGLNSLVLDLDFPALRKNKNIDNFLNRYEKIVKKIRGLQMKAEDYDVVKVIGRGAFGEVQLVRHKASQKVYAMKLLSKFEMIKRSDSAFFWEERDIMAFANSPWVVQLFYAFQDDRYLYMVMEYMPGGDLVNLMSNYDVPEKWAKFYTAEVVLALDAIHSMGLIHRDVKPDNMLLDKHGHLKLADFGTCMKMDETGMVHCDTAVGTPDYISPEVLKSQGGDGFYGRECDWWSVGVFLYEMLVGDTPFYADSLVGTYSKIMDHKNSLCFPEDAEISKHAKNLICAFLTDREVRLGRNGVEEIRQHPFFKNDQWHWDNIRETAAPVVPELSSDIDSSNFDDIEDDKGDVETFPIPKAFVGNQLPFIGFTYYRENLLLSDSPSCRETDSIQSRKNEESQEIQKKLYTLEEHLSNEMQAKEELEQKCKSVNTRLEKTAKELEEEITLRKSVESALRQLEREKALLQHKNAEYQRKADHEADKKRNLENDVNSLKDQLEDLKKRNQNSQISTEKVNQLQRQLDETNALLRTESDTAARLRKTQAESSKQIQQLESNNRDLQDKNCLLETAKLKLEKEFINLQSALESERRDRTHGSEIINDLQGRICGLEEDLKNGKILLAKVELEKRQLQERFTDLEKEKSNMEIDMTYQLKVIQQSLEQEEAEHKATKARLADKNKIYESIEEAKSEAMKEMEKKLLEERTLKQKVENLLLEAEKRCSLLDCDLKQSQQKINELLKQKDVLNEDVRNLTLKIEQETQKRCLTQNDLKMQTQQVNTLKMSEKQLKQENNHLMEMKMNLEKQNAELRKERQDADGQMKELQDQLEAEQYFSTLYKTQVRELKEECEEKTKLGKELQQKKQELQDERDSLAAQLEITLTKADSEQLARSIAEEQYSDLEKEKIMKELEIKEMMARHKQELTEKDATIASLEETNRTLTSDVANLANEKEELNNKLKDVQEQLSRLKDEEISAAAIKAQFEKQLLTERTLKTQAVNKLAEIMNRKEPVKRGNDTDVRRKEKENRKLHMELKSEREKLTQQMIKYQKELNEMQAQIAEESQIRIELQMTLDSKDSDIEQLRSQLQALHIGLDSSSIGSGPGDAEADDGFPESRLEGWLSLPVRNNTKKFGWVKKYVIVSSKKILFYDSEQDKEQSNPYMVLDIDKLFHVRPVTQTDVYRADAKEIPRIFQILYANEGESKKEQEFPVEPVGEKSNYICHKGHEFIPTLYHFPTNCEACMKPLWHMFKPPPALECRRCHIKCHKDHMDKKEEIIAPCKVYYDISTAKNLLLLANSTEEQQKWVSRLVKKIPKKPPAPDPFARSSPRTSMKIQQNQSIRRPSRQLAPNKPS
Sequence of Rho-associated protein kinase 1 (Q13464 whole entry): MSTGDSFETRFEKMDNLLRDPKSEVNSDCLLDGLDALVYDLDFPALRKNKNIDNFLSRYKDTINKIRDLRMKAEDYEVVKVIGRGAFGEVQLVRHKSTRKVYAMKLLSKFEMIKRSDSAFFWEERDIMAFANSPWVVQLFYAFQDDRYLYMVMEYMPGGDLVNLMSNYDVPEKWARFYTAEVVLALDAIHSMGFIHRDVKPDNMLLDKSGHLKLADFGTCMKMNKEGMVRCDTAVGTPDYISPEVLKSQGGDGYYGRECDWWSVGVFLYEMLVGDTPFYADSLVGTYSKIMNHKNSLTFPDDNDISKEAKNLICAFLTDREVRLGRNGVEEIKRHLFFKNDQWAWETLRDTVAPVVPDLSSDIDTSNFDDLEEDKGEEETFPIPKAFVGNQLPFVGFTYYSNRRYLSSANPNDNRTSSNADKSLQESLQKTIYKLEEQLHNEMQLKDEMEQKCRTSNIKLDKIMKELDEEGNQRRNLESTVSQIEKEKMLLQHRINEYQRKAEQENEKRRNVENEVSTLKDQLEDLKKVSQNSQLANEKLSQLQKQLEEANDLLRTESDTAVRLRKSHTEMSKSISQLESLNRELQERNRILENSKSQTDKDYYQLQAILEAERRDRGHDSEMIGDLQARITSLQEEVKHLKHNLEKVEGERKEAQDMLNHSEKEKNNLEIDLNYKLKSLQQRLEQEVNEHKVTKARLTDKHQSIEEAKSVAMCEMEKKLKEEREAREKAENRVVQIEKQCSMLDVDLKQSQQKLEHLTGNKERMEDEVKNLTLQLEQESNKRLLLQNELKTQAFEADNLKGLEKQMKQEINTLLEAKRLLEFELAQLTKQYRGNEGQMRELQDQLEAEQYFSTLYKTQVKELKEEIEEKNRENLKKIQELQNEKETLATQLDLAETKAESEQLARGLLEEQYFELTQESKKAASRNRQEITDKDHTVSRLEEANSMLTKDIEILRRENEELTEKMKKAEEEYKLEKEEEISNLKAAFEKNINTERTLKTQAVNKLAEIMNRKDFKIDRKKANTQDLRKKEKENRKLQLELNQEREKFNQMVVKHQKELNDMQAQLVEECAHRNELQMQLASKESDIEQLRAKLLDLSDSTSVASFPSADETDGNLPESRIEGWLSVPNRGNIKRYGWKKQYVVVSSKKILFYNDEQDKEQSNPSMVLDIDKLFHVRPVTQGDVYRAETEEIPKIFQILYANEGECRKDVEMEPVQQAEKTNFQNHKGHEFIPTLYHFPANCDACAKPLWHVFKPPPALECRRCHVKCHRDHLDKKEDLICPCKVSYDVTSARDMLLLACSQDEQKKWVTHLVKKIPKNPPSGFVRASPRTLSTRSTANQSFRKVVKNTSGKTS
Sequence of Cytochrome P450 2D6 (P10635 whole entry): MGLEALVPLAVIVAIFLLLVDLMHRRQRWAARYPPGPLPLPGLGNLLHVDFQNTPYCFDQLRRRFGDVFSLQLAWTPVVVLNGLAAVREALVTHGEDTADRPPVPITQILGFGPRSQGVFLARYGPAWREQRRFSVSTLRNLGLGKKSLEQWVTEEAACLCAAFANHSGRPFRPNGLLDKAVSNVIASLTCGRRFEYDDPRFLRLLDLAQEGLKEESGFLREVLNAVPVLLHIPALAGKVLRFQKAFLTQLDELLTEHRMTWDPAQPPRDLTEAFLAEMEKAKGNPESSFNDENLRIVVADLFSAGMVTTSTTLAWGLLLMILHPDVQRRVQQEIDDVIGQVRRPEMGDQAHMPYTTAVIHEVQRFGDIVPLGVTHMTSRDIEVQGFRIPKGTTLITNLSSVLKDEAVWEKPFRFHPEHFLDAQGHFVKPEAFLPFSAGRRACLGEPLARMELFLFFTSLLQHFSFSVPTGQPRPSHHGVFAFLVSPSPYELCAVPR
Sequence of Cytochrome P450 3A4 (P08684 whole entry): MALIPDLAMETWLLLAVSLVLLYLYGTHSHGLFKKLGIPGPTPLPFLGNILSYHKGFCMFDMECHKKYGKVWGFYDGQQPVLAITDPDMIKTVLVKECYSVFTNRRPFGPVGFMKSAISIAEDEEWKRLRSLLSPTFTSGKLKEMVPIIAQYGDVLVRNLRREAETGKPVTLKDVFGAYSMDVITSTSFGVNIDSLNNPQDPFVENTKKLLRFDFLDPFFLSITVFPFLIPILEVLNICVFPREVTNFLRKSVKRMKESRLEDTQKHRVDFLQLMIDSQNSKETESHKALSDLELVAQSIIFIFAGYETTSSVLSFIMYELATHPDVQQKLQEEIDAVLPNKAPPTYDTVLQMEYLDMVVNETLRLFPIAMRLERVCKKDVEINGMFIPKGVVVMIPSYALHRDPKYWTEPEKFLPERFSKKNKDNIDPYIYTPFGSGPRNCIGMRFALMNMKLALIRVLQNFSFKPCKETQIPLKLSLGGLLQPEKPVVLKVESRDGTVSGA
Sequence of Cytochrome P450 2C19 (P33261 whole entry): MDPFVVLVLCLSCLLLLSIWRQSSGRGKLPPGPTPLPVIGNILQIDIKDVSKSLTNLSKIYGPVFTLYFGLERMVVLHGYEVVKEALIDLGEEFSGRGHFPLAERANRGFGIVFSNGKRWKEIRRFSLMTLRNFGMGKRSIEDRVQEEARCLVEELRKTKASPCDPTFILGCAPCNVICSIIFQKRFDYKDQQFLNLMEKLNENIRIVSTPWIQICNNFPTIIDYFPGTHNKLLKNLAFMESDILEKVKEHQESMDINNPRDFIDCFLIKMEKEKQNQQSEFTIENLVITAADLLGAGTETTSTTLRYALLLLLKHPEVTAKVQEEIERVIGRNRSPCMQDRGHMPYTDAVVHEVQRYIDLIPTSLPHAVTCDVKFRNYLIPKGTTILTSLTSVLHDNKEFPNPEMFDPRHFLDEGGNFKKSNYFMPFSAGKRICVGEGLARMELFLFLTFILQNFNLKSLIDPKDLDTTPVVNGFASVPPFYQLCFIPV

Row | IC50 [1] | IC50 [2] | Compound | other results
1 | 2.6 µM | 6.7 µM | CCN(CC)c1ncc(-c2ccncc2)nc1N1CCCN(C)CC1 | 
2 | 42 µM | 3 µM | CN1CCCN(c2nc(-c3ccncc3)cnc2NCCO)CC1 | 
3 | > 10 µM | > 10 µM | CN1CCCN(c2nc(-c3ccc4cn[nH]c4c3)cnc2N)CC1 | 
4 | 6.9 µM | 2.4 µM | CNc1ncc(-c2ccncc2)nc1N1CCCN(C)CC1 | 
5 | 4.6 µM | 2.5 µM | Nc1ncc(-c2ccncc2)nc1N1CCN(CCO)CC1 | 
6 | > 100 µM | > 100 µM | Cc1cc(-c2cnc(N)c(N3CCCN(C)CC3)n2)ccn1 | 
7 | 10 µM | 52 µM | COCCNc1ncc(-c2ccncc2)nc1N1CCCN(C)CC1 | 
8 | 2.3 µM | 0.95 µM | CN1CCCN(c2nc(-c3ccc4[nH]ncc4c3)cnc2N)CC1 | 
9 | 1.8 µM | 0.25 µM | CNC1CCN(c2nc(-c3ccncc3)cnc2N2CCCC2)CC1 | 
10 | 25 µM | 53 µM | CN1CCCN(c2nc(-c3ccnc(N)c3)cnc2N)CC1 | 
11 | 1.5 µM | 0.53 µM | CN1CCCN(c2nc(-c3ccnc4[nH]ccc34)cnc2N)CC1 | 
12 | 0.61 µM | 0.062 µM | c1cc(-c2cnc(N3CCCC3)c(N3CCNCC3)n2)ccn1 | 
13 | 68 µM | 6.3 µM | CN1CCCN(c2nc(-c3ccncc3)cnc2N2CCOCC2)CC1 | 
14 | 48 µM | 45 µM | COCCN(C)c1ncc(-c2ccncc2)nc1N1CCCN(C)CC1 | 
15 | 6 µM | 0.33 µM | CN1CCCN(c2nc(-c3ccncc3)cnc2N2CCCC2)CC1 | 
16 | 0.3 µM | 0.089 µM | NC1CCN(c2nc(-c3ccnc4[nH]ccc34)cnc2N2CCCC2)CC1 | 
17 | 9.6 µM | 2.5 µM | CN1CCCN(c2nc(-c3cccc4[nH]ncc34)cnc2N)CC1 | 
18 | 37 µM | 2.9 µM | CN1CCCN(c2nc(-c3cc[nH]n3)cnc2N)CC1 | 
19 | 6.5 µM | 1.7 µM | CN1CCCN(c2nc(-c3ccncc3)cnc2N(C)C)CC1 | 
20 | 120 µM | 58 µM | Cc1cnccc1-c1cnc(N)c(N2CCCN(C)CC2)n1 | 
21 | 0.15 µM | 0.049 µM | CNCC1CCN(c2nc(-c3ccncc3)cnc2N2CCCC2)CC1 | 
22 | 0.29 µM | 0.062 µM | NC1CCN(c2nc(-c3ccncc3)cnc2N2CCCC2)CC1 | 
23 | 4.6 µM | 2.5 µM | CN1CCCN(c2nc(-c3ccncc3)cnc2N)CC1 | 
24 | 18 µM | 0.56 µM | CN1CCCN(c2nc(-c3ccncc3)cnc2N2CCCCC2)CC1 | 
25 | 1.4 µM | 0.3 µM | CN(C)c1ncc(-c2ccncc2)nc1N1CCN(CCO)CC1 | 

Row | Compound | IC50 [1] | IC50 [2] | other results
26 | NCC1CCN(c2nc(-c3ccncc3)cnc2N2CCCC2)CC1 | 0.13 µM | 0.028 µM | 
27 | c1cc(-c2cnc(N3CCCC3)c(N3CCCNCC3)n2)ccn1 | 0.32 µM | 0.039 µM | 
28 | c1cc(-c2cnc(N3CCCC3)c(N3CCCNCC3)n2)c2cc[nH]c2n1 | 0.17 µM |  | 
29 | OCCN1CCN(c2nc(-c3ccncc3)cnc2N2CCCC2)CC1 | 0.3 µM | 0.078 µM | Activity [3]: > 2 µM; Activity [4]: > 2 µM; Activity [5]: > 2 µM; Activity [6]: > 2 µM; Activity [7]: > 2 µM; Activity [8]: > 2 µM; remaining at 1 h [9]: 100%
30 | c1cc(-c2cnc(N3CCCC3)c(N3CCNCC3)n2)c2cc[nH]c2n1 | 0.034 µM | 0.017 µM | 
